Measured values as given in PubChem BioAssay AID179 (DTP/NCI, 2004).
Calls of active or inactive are those of the source.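 Rule for the calls: active = compounds giving half or more protection of infected cells from virus-caused growth loss, again on retest; inactive = the rest.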 Where a SMILES comes first, the peptide text is derived from it. The star is where a group is joined. Cbz = O=C(OCc1ccccc1)*; NHNH2 = NN*

Test system: CEM cells HIV-1 protection, formazan growth assay
Test: NCI AIDS Antiviral Assay
Details: for IC50: measured here: growth of uninfected CEM cells
Procedure, shortened: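 Soluble formazan readout of cell growth; CEM cells ± HIV-1; 5 drug concs. ≥50% protection → retest; ≥50% again = moderately active; reproducible 100% = confirmed active.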

Compound | EC50 [µM] | IC50 [µM] | outcome
COc1ccc([C@H]2Oc3cc(O)cc(O)c3C(=O)[C@@H]2[C@H]2C(=O)c3c(O)cc(OC)cc3O[C@@H]2c2ccc(OC)cc2)cc1 | > 200 | 110 | –
CC(C)(C)OC(=O)NC(CSCc1ccc(C(=O)c2ccccc2)cc1)C(=O)O (stereo not drawn) | > 200 | 50.1 | –
CN1C=CC(C(C(N)=O)c2ccccc2)c2ccccc21 (stereo not drawn) | > 200 | 178 | –
O=C(NNC(=S)NC1CCCCC1)c1csc(NC(=S)NC2CCCCC2)n1 | > 20 | 1.86 | –
O=C(O)c1cc2ccccc2c(S(=O)(=O)O)c1O | > 200 | > 200 | –
C(#CCN1CCCCCC1)CN1CCCCCC1 | 182 | > 200 | –
CC(OCc1ccccc1)C(NC(=O)C1CSSCC(NC(=O)C(Cc2ccccc2)NC(=O)OCc2ccccc2)C(=O)NC(Cc2ccccc2)C(=O)NC(Cc2cn(C=O)c3ccccc23)C(=O)NC(CCCCNC(=O)OCc2ccccc2)C(=O)NC(C(C)OCc2ccccc2)C(=O)N1)C(N)=O (stereo not drawn) | > 100 | 4.47 | –
O=C(O)CCC(NC(=O)c1ccccc1)C(=O)O (stereo not drawn) | – | – | inactive
Cc1ccc(-c2oc(C=Nc3ccccc3)c([N+](=O)[O-])c2-c2ccc(C)cc2)cc1 | > 200 | > 200 | –
CC1CCC(=O)C(C(O)CC2CC(=O)N(c3ccccc3)C(=O)C2)C1 (stereo not drawn) | > 200 | > 200 | –
COC(=O)c1cc(Br)c(C(=O)C(Cl)(Cl)Cl)[nH]1 | > 200 | > 200 | –
C/C(CC(=O)Nc1ccc([N+](=O)[O-])cc1)=N\Nc1ccc([N+](=O)[O-])cc1[N+](=O)[O-] | > 24.5 | > 24.5 | –
O=C(O)c1cc(I)cc(I)c1O | > 646 | 107 | –
CCCCCCOc1ccc(C(=O)NOCc2ccccc2)cc1 | > 200 | 66.1 | –
N#CCC(=O)N/N=C\c1ccc2c(c1)OCO2 | > 200 | > 200 | –
O=C1CC2(CCC(O)(c3ccc4ccccc4c3)C(C(=O)c3ccc4ccccc4c3)C2)C(=O)c2ccccc2N1 (stereo not drawn) | > 200 | 83.2 | –
CCCC#CC(O)(C(=O)OC1CCN(C)CC1)C1CCCCC1 (stereo not drawn) | > 200 | > 200 | –
CC[N+](CC)=c1cc2oc3cc(N(C)C)ccc3nc-2cc1C | > 200 | 16.2 | –
CN(C(=O)c1ccco1)C(=S)N1CCN(c2ccccc2)CC1 | > 110 | 30.2 | –
C1CCC(N2OC23CCCCC3)CC1 (stereo not drawn) | – | – | inactive
CN(C)COC(=S)SSSC(=S)OCN(C)C | 0.195 | 0.724 | –
O=C(/C=C/c1ccccc1O)c1ccccc1 | > 60.3 | > 60.3 | –

Compound | EC50 [µM] | IC50 [µM] | outcome
O=[N+]([O-])c1ccc(-c2noc(-c3ccc(Cl)cc3)c2C2=NCCCN2)cc1 | > 35.5 | > 35.5 | –
Cc1c(/C=N/NC(=O)c2ccccc2)c(=O)n(-c2ccccc2)n1C | > 200 | > 200 | –
Cc1ccc(S(=O)(=O)SC(C)(C)C)cc1 | > 29.5 | 9.33 | –
C=CCC(C)(O)CCC(O)(CC=C)CC=C (stereo not drawn) | > 200 | > 200 | –
CC(=O)Oc1ccc2c(c1)Oc1cc(OC(C)=O)ccc1C21OC(=O)c2ccccc21 | > 200 | – | –
c1ccc(CC[P+](c2ccccc2)(c2ccccc2)c2ccccc2)cc1 | > 200 | 1.29 | –
Cc1cc(C)c2c(c1)sc1n[nH]c(=S)n12 | > 63.1 | > 63.1 | –
N#Cc1nc(CSCc2ccccc2)oc1N | > 200 | 117 | –
CC(C)=NNC=N/C(C#N)=C(\N)C#N | > 200 | > 200 | –
O=C(CN1CCOCC1)NC1=Nc2ncccc2C(=O)NN1 | > 200 | 115 | –
Cn1c(=O)nc2n(-c3cccc(Cl)c3)c3ccccc3nc-2c1=O | – | – | inactive
C=C1C(=O)O[C@H]2C3OC3(C)CC/C=C(/C(=O)OC)[C@@H](OC(C)=O)[C@H](OC(=O)C3(C)OC3C)[C@H]12 (stereo partly drawn) | – | – | inactive
COc1ccccc1C12OC(=O)C1(C)Oc1ccccc1C2=O (stereo not drawn) | – | – | inactive
Cc1ccccc1/C=C1/N=C(c2ccccc2)OC1=O | > 200 | 33.1 | –
Cc1cccc(C)c1N1C(=O)C(=O)C(c2nc3ccccc3s2)/C(=N\N)C1=O (stereo not drawn) | – | – | inactive
COC(=O)C1=C(C(=O)OC)N(c2ccc(OC)cc2[N+](=O)[O-])C(c2ccc(C)cc2)=CC1c1ccc(OC)cc1OC (stereo not drawn) | > 100 | 3.02 | –
COC(=O)C(=O)C(C(=O)C(=O)Nc1ccc(C)cc1C)c1nc2ccccc2[nH]c1=O (stereo not drawn) | > 23.4 | > 23.4 | –
Cc1cccc(C)c1NC(=O)C(=O)C(C#N)c1ccccc1Cl (stereo not drawn) | > 759 | > 759 | –
CCCCCCCCC1=C(OC)C(=O)c2cccnc2C1=O | – | – | inactive
O=C1c2ccccc2C(=O)C1(O)c1c[nH]c2ccccc12 | > 912 | 64.6 | –
CC(=O)C1C(=O)NC(=O)C1=O (stereo not drawn) | > 1620 | > 1620 | –
CC(C)N1C(C)[C@@H](c2ccccc2)O[P@@]1(=O)CC1=CCCCC1 (stereo partly drawn) | – | – | inactive

Compound | EC50 [µM] | IC50 [µM] | outcome
Cc1ccccc1[B-]12OCC[N+]1(CNC(=O)C1=C(O)C3(O)C(=O)C4=C(O)c5c(O)cccc5C(C)(O)C4CC3C(N(C)C)C1=O)CCO2 (stereo not drawn) | > 53.7 | > 53.7 | –
Cc1ccc2c3c(nsc13)-c1ccccc1C2=O | > 53.7 | > 53.7 | –
CN(C(=O)c1ccc(Cl)cc1)C(=S)N1CCN(c2ccccc2)CC1 | > 19.5 | > 19.5 | –
O=C(N=Nc1ccc(Cl)cc1Cl)NNc1ccc(Cl)cc1Cl | > 200 | 57.5 | –
COC(=O)C1(C)CCCC2(C)C3CC(CO)C(C(C)C)CC3CCC12 (stereo not drawn) | > 200 | > 200 | –
CN1CC(C)(C)NC(=O)[C@@](C)(OCc2ccccc2)CN(C)CC(C)(C)NC(=O)[C@](C)(OCc2ccccc2)C1 | > 200 | 120 | –
CC(=C(C(N)=O)C(N)=O)C1C=C(c2cccs2)CC(c2ccc(Cl)cc2)=C1O (stereo not drawn) | > 200 | > 100 | –
COC1N(C2C=CC(CO)O2)C(=O)NC(=O)C1(C)I (stereo not drawn) | 0.275 | 7.76 | –
CCOC(=O)CCC(NC(=O)OCc1ccccc1)C(=O)NC(CCC(=O)OCC)C(=O)NN (stereo not drawn) (Cbz-Glu(OEt)-Glu(OEt)-NHNH2; configuration not given here) | > 200 | > 200 | –
COC(=O)[C@@H]1CO[C@H](C(C)(C)C)N1C(=O)N1C=CC(=O)C[C@H]1C | > 200 | > 200 | –
CC1=C(C2CC(C)CC(OCOCc3ccccc3)O2)C(C)(C)CCC1 (stereo not drawn) | > 20 | > 20 | –
c1ccc(CN(Cn2cccn2)Cn2cccn2)nc1 | – | – | inactive
COC(=O)C(CC1CC(=O)N(CCc2c[nH]c3ccccc23)C1)C(=O)OC (stereo not drawn) | > 191 | > 191 | –
Cn1c(-c2ccc(/C=N/N=C/c3ccc(-c4c[n+]5ccccc5n4C)cc3)cc2)c[n+]2ccccc12 | > 200 | 170 | –
CCCCC12C3CC4C5C(C)/C(=C6\OC(=O)C(C)=C6OC)OC5(O3)C1CCN42 (stereo not drawn) | > 50.1 | > 50.1 | –
Cc1ccc2cc(-c3ccccc3)c3ccc(C)nc3c2n1.Cc1ccc2cc(-c3ccccc3)c3ccc(C)nc3c2n1.O=C1OC(C(O)C[O-])C(O)=C1O.[Cu+] | > 25.1 | 1.29 | –
COc1ccc(-c2oc3ccc(C)cc3c(=O)c2O)cc1 | > 52.5 | > 52.5 | –
C=C1C2CC[C@H]3C45CO[C@@](O)(C(O)[C@@H]4C(C)(C)C=CC5=O)C3(C2)C1OC(C)=O (stereo partly drawn) | > 339 | 23.4 | –
COc1ccc(/C=C/C(CC(NO)c2ccc(OC)cc2)=N\O)cc1 (stereo not drawn) | > 200 | > 100 | –
COc1ccc(/C=C2\CNC/C(=C\c3ccc(OC)cc3)C2=O)cc1 | > 7.41 | > 7.41 | –
N#Cc1c(C#N)c(-c2ccco2)n(/N=C/c2ccco2)c1N | > 200 | > 200 | –
C=CC(C)(C)C1Oc2cc(O)ccc2C(=O)C1c1ccc(OC)c(OC)c1O (stereo not drawn) | > 200 | 3.09 | –

Compound | EC50 [µM] | IC50 [µM] | outcome
O=C(Cc1ccccc1)NN1C(=O)C(Cl)C1c1cccc([N+](=O)[O-])c1 (stereo not drawn) | > 14.5 | 8.71 | –
OCC1C=CC(n2cnc3c(Cl)ncnc32)CC1 (stereo not drawn) | > 200 | 34.7 | –
O=C([O][Bi]([c]1ccccc1)[c]1ccccc1)c1ccccc1 | > 38.9 | > 38.9 | –
CC(C)(C)c1ccccc1N1C(=O)c2ccc3c4c(ccc(c24)C1=O)N(c1ccccc1C(C)(C)C)C3=O | > 200 | > 200 | –
COc1ccccc1N1C(=O)/C(=C\c2cccc(Oc3ccccc3)c2)SC1c1ccccc1 (stereo not drawn) | > 200 | 52.5 | –
CCOC(=O)C1=C(C)C2C=C(c3cccs3)CC(c3ccc(Cl)cc3)=C2OC1=O (stereo not drawn) | > 200 | 91.2 | –
ONC1=Nc2ccccc2C(=S)N2CSCC12 (stereo not drawn) | > 200 | > 200 | –
CC(C)(C)OC(=O)NC(Cc1ccc(O)cn1)C(N)=O (stereo not drawn) | > 200 | > 200 | –
CC(C)(C)c1cc(C(P(=O)(c2ccccc2)c2ccccc2)P(=O)(c2ccccc2)c2ccccc2)cc(C(C)(C)C)c1O | > 200 | 3.24 | –
CC(=O)N1CCC2(C=Nc3ccccc32)CC1 | > 22.9 | > 22.9 | –
CN1C2CCC1CC(C)(O)C2 (stereo not drawn) | > 200 | > 200 | –
CN(C)CC1CCCCCC(CN(C)C)C1=O (stereo not drawn) | > 20 | 1.07 | –
CC(=O)OCC1=C(C(=O)O)N2C(=O)C(NC(=O)CSc3ccncc3)C2SC1 (stereo not drawn) | 61.7 | 631 | –
N=C(N)SCc1ccc2c(c1)Sc1ccccc1O2 | > 200 | 11.7 | –
O=C(O)CCCCCCC(=O)O | > 1450 | > 1450 | –
O=C1c2ccccc2Sc2ccccc2N1CCCN1CCN(c2ccc(F)cc2)CC1 | > 200 | 33.9 | –
COC(=O)C1=CCS(=O)(=O)C1 | > 1410 | 178 | –
OC(c1ccccc1)C1CC2C=CC1C2 (stereo not drawn) | – | – | inactive
Clc1ccccc1CN1COc2c(cc(Cl)c3cccnc23)C1 | > 87.1 | 4.57 | –
CCOC(=O)CSc1cc(C)c2c(N)c(C(=O)OCC)sc2n1 | > 72.4 | > 72.4 | –
COc1ccc(N2CC(=O)N(C(=O)COc3ccc(OCC(=O)N4C(=O)CN(c5ccc(OC)cc5)C4=S)cc3)C2=S)cc1 | > 200 | 87.1 | –
